Test results from patent US20140179664A1, “Heterocyclyl Pyrimidine Analogues As JAK Inhibitors” (Cellzome Limited, priority 2011, published 2014).

Target: T1, JAK3 (Homo sapiens, UniProt P52333)
T1 construct: endogenous in cells; host or cells: Molt4 (ATCC CRL-1582) and Ramos (ATCC CRL-1596), mixed lysate 1:2
T1 sequence (P52333 1-1124): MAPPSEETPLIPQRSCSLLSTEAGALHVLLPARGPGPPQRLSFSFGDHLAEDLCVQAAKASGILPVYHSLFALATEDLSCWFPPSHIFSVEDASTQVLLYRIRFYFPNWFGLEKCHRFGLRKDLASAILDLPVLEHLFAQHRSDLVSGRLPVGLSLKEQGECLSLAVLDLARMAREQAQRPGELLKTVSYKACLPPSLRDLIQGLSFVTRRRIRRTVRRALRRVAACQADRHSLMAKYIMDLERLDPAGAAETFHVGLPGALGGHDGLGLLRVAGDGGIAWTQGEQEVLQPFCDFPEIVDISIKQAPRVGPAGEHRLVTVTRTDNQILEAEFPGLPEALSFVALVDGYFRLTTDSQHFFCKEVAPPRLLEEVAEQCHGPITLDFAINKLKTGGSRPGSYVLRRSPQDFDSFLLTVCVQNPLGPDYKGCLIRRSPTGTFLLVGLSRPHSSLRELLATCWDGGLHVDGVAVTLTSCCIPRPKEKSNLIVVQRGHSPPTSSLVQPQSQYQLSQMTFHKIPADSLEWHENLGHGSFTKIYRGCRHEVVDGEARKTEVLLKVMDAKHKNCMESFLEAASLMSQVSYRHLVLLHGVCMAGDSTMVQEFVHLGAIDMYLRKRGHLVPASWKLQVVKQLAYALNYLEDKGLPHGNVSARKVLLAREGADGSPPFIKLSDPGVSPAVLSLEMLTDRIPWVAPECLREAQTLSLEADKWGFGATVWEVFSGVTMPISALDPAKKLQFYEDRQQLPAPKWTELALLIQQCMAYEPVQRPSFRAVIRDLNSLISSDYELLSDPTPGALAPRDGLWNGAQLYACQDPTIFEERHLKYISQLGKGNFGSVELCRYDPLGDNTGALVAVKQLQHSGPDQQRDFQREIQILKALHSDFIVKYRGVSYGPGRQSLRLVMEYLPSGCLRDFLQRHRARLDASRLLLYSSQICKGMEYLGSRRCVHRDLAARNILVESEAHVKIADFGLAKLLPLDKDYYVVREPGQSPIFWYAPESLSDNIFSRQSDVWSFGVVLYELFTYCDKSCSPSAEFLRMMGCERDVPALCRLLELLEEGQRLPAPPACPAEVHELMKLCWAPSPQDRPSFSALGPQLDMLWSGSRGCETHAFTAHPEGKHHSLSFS
Assay: Kinobeads assay, JAK3
Format: binding
Details: mixed Molt4/Ramos lysate, read-out: Inhibition values (IC50) JAK3
Procedure: The compounds of the present invention as described in the previous examples were tested in a Kinobeads™ assay as described for ZAP-70 (WO-A 2007/137867). Briefly, test compounds (at various concentrations) and the affinity matrix with the immobilized aminopyrido-pyrimidine ligand 24 were added to cell lysate aliquots and allowed to bind to the proteins in the lysate sample. After the incubation time the beads with captured proteins were separated from the lysate. Bound proteins were then eluted and the presence of JAK1, JAK2, JAK3 and TYK2 was detected and quantified using specific antibodies in a dot blot procedure and the Odyssey infrared detection system. Dose response curves for individual kinases were generated and IC50 values calculated. Kinobeads™ assays for ZAP-70 (WO-A 2007/137867) and for kinase selectivity profiling (WO-A 2006/134056) have been previously described.
The affinity matrix was washed two times with 15 mL of lx DP buffer containing 0.2% NP40 (IGEPAL® CA-630, Sigma, #13021) and then resuspended in 1×DP buffer containing 0.2% NP40 (3% beads slurry).
5×DP buffer: 250 mM Tris-HCl pH 7.4, 25% Glycerol, 7.5 mM MgCl2, 750 mM NaCl, 5 mM Na3VO4; filter the 5×DP buffer through a 0.22 μm filter and store in aliquots at −80° C. The 5×DP buffer is diluted with H2O to 1×DP buffer containing 1 mM DTT and 25 mM NaF.
Stock solutions of test compounds were prepared in DMSO. In a 96 well plate […] solution of diluted test compounds at 5 mM in DMSO were prepared. Starting with this solution a 1:3 dilution series (9 steps) was prepared. For control experiments (no test compound) a buffer containing 2% DMSO was used.
Molt4 cells (ATCC catalogue number CRL-1582) and Ramos cells (ATCC catalogue number CRL-1596) were grown in 1 L Spinner flasks (Integra Biosciences, #182101) in suspension in RPMI 1640 medium (Invitrogen, #21875-034) supplemented with 10% Fetal Bovine Serum (Invitrogen) at a density between 0.15×10^6 and 1.2×10^6 cells/mL. Cells were harvested by centrifugation, washed once with 1×PBS buffer (Invitrogen, #14190-094) and cell pellets were frozen in liquid nitrogen and subsequently stored at −80° C. Cells were homogenized in a Potter S homogenizer in lysis buffer: 50 mM Tris-HCl, 0.8% NP40, 5% glycerol, 150 mM NaCl, 1.5 mM MgCl2, 25 mM NaF, 1 mM sodium vanadate, 1 mM DTT, pH 7.5. One complete EDTA-free tablet (protease inhibitor cocktail, Roche Diagnostics, 1873580) per 25 mL buffer was added. The material was dounced 10 times using a mechanized POTTER S, transferred to 50 mL falcon tubes, incubated for 30 minutes on ice and spun down for 10 minutes at 20,000 g at 4° C. (10,000 rpm in Sorvall SLA600, precooled). The supernatant was transferred to an ultracentrifuge (UZ)-polycarbonate tube (Beckmann, 355654) and spun for 1 hour at 100.000 g at 4° C. (33.500 rpm in Ti50.2, precooled). The supernatant was transferred again to a fresh 50 mL falcon tube, the protein concentration was determined by a Bradford assay (BioRad) and samples containing 50 mg of protein per aliquot were prepared. The samples were immediately used for experiments or frozen in liquid nitrogen and stored frozen at −80° C.
Cell lysate (approximately 50 mg protein per plate) was thawed in a water bath at room temperature and then stored on ice. To the thawed cell lysate 1×DP 0.8% NP40 buffer containing protease inhibitors (1 tablet for 25 mL buffer; EDTA-free protease inhibitor cocktail; Roche Diagnostics 1873580) was added in order to reach a final protein concentration of 10 mg/mL total protein. The diluted cell lysate was stored on ice. Mixed Molt4/Ramos lysate was prepared by combining one volume of Molt4 lysate and two volumes of Ramos lysate (ratio 1:2).
To a 96 well filter plate (Multiscreen HTS, BV Filter Plates, Millipore #MSBVN1250) were added per well: 100 μL affinity matrix (3% beads slurry), […], of compound solution, and 50 μL of diluted lysate. […]

Row | Compound | IC50
1 | Cc1cnc(Nc2cnn(CC(=O)N(C)C)c2)nc1N[C@H](CO)c1ccccc1 [Compound 134] | < 100 nM
2 | CN1CCC(n2cc(Nc3ncc(Cl)c(N[C@H](CO)c4ccccc4)n3)cn2)C1=O (stereo partly drawn) [Compound 135] | < 100 nM
3 | Cn1cc(Nc2ncc(Cl)c(N[C@H](CO)c3cccc(-c4cnn(C)c4)c3)n2)cn1 [Compound 136] | 100 to 1000 nM
4 | Cn1cc(Nc2ncc(Cl)c(N[C@H](CO)c3cc(F)cc(-c4cnn(C)c4)c3)n2)cn1 [Compound 137] | 100 to 1000 nM
5 | Cn1cc(Nc2ncc(Cl)c(N[C@H](CO)c3cccc(N4CCOCC4=O)c3)n2)cn1 [Compound 138] | < 100 nM
6 | Cn1cc(Nc2ncc(Cl)c(N[C@H](CO)c3cc(F)ccc3F)n2)cn1 [Compound 139] | < 100 nM
7 | NC(=O)Cn1cc(Nc2ncc(Cl)c(N[C@H](CO)c3cc(F)ccc3F)n2)cn1 [Compound 140] | < 100 nM
8 | CNC(=O)Cn1cc(Nc2ncc(Cl)c(N[C@H](CO)c3cc(F)ccc3F)n2)cn1 [Compound 141] | < 100 nM
9 | Cn1cc(Nc2ncc(Cl)c(N[C@H](CO)c3cc(F)cc(F)c3)n2)cn1 [Compound 142] | < 100 nM
10 | OCCn1cc(Nc2ncc(Cl)c(N[C@H](CO)c3cc(F)cc(F)c3)n2)cn1 [Compound 143] | < 100 nM
11 | NC(=O)Cn1cc(Nc2ncc(Cl)c(N[C@H](CO)c3cc(F)cc(F)c3)n2)cn1 [Compound 144] | < 100 nM
12 | CNC(=O)Cn1cc(Nc2ncc(Cl)c(N[C@H](CO)c3cc(F)cc(F)c3)n2)cn1 [Compound 145] | < 100 nM
13 | Cn1cc(Nc2ncc(F)c(N[C@H](CO)c3cc(F)ccc3F)n2)cn1 [Compound 146] | < 100 nM
14 | OCCn1cc(Nc2ncc(F)c(N[C@H](CO)c3cc(F)ccc3F)n2)cn1 [Compound 147] | < 100 nM
15 | CNC(=O)Cn1cc(Nc2ncc(F)c(N[C@H](CO)c3cc(F)ccc3F)n2)cn1 [Compound 148] | < 100 nM
16 | Cc1cnc(Nc2cnn(C)c2)nc1N[C@H](CO)c1cccc(-c2cnn(C)c2)c1 [Compound 149] | 100 to 1000 nM
17 | Cn1cc(Nc2ncc(F)c(N[C@H](CO)c3cc(F)cc(-c4cnn(C)c4)c3)n2)cn1 [Compound 150] | 100 to 1000 nM

Row | Compound | IC50
18 | Cn1cc(-c2cccc([C@@H](CO)Nc3nc(Nc4cnn(CCO)c4)ncc3Cl)c2)cn1 [Compound 151] | 100 to 1000 nM
19 | Cn1cc(-c2cc(F)cc([C@@H](CO)Nc3nc(Nc4cnn(CCO)c4)ncc3Cl)c2)cn1 [Compound 152] | < 100 nM
20 | Cn1cc(-c2cc(F)cc([C@@H](CO)Nc3nc(Nc4cnn(CCO)c4)ncc3F)c2)cn1 [Compound 153] | 100 to 1000 nM
21 | CNC(=O)Cn1cc(Nc2ncc(Cl)c(N[C@H](CO)c3cccc(-c4cnn(C)c4)c3)n2)cn1 [Compound 154] | < 100 nM
22 | CNC(=O)Cn1cc(Nc2ncc(F)c(N[C@H](CO)c3cccc(-c4cnn(C)c4)c3)n2)cn1 [Compound 155] | 100 to 1000 nM
23 | CNC(=O)Cn1cc(Nc2ncc(Cl)c(N[C@H](CO)c3cc(F)cc(-c4cnn(C)c4)c3)n2)cn1 [Compound 156] | < 100 nM
24 | CNC(=O)Cn1cc(Nc2ncc(F)c(N[C@H](CO)c3cc(F)cc(-c4cnn(C)c4)c3)n2)cn1 [Compound 157] | 100 to 1000 nM
25 | Cn1cc(Nc2ncc(F)c(N[C@H](CO)c3cc(F)cc(F)c3)n2)cn1 [Compound 158] | < 100 nM
26 | OCCn1cc(Nc2ncc(F)c(N[C@H](CO)c3cc(F)cc(F)c3)n2)cn1 [Compound 159] | < 100 nM
27 | NC(=O)Cn1cc(Nc2ncc(F)c(N[C@H](CO)c3cc(F)cc(F)c3)n2)cn1 [Compound 160] | < 100 nM
28 | CNC(=O)Cn1cc(Nc2ncc(F)c(N[C@H](CO)c3cc(F)cc(F)c3)n2)cn1 [Compound 161] | < 100 nM
29 | Cn1cc(Nc2ncc(Cl)c(N[C@H](CO)c3cccc(N4CCOCC4=O)c3F)n2)cn1 [Compound 162] | < 100 nM
30 | Cc1cnc(Nc2cnn(C)c2)nc1N[C@H](CO)c1cc(F)ccc1F [Compound 163] | < 100 nM
31 | Cc1cnc(Nc2cnn(C)c2)nc1N[C@H](CO)c1cc(F)cc(F)c1 [Compound 164] | 100 to 1000 nM
32 | OC[C@@H](Nc1nc(Nc2cnn(CC(F)F)c2)ncc1Cl)c1ccccc1F [Compound 165] | < 100 nM
33 | Cc1cnc(Nc2cnn(CC(F)F)c2)nc1N[C@H](CO)c1cc(F)ccc1F [Compound 166] | 100 to 1000 nM
